Common to all, as to format: cell-based
One experiment concerns BRD2. The experiment in a line: In-Cell Western for BRD2 levels in Hep G2 cells. Put shortly:
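Hep G2 cells were treated with compound for the indicated time and concentration. After fixation and permeabilisation, BRD2 was immunostained and read by near-infrared imaging. BRD2 signal was normalised to vinculin.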

For a further experiment, the target named is T1, BRD4 (Homo sapiens, UniProt O60885).
T1 construct: endogenous in cells; host or cells: Jurkat
In words: BRD4 levels by Western blot in Jurkat cells. The settings on record: for degradation of BRD4: 3 µM, 6 h treatment. As for the experimental part:
(§1) Cells were washed with PBS and lysed in lysis buffer (50 mM Tris-HCl, pH 7.4, 150 mM NaCl, 1% Triton X-100, 1% sodium deoxycholate, 0.1% SDS) with complete protease inhibitor cocktail (Roche, 11836170001) for 30 min on ice. For Ramos cells, cell pellets were lysed in lysis buffer (50 mM Tris-HCl, pH 8, 150 mM NaCl, 1% NP-40, 0.5% sodium deoxycholate) with complete protease inhibitor cocktail. After centrifugation at 16,000 x g, the supernatant was transferred into a new tube and the protein concentration was determined by DC protein assay (BIO-RAD, 5000116). Proteins were separated by SDS-PAGE and transferred to a PVDF membrane (Thermo scientific, 0.45 μm, 88518). For PDEδ, BRD2, GAPDH, BRD4, Vinculin and BTK, the membranes were blocked with Intercept® Blocking Buffer (LI-COR Biosciences, 927-70001) at room temperature for 1 h. The primary antibodies for these proteins were diluted with Intercept® Blocking Buffer (1:500 for PDEδ, 1:3000 for Vinculin, and 1:1000 for other proteins) and incubated with the membranes overnight at 4 °C. Membranes were washed with PBS + 0.1% Tween 20 (PBS-T) five times and incubated with secondary antibodies conjugated to IRDye® Infrared Fluorescent Dyes (1:5000, LI-COR Biosciences) at room temperature for 1 h with protection from light. After washing the membrane, signals were visualized using the ChemiDoc MP Imaging System (BIO-RAD Laboratories). For detection of LC3B, BRD3, BLK, DCAF11, DDB1 RBX1, FIP200, V5- and FLAG-Tag the membranes were blocked with 5% milk in PBS-T at room temperature for 1 h. The primary antibodies for these proteins were diluted in 5% milk in PBS-T buffer (1:200 for BRD3, 1:1000 for other proteins) and incubated with the membranes overnight at 4 °C. Membranes were washed with PBS-T five times and incubated with HRP secondary antibodies (1:1500) at room temperature for 1 h. After washing the membrane, protein detection was performed using Western blotting detection reagent (Thermo Scientific, 34095) and the ChemiDoc MP Imaging System (BIO-RAD). Relative band intensities were quantified using Image Lab (BIO-RAD).
(In general: In western blotting, separated proteins are transferred to a membrane and probed.)

Another experiment has as its target T2, BRD3 (Homo sapiens, UniProt Q15059).
T2 construct: endogenous in cells; host or cells: Jurkat
In words: BRD3 levels by Western blot in Jurkat cells. The settings on record: for degradation of BRD3: 3 µM, 6 h treatment. As for the experimental part: as §1

Another experiment concerns caspase-3/7 activity. In words: Caspase-3/7 Activity Assay in Jurkat cells. The settings on record: 18 h. The procedure:
Jurkat cells (3 × 10^3) were seeded in 96-well plates in 25 μl culture medium. Cells were treated with compounds dissolved in 25 μl medium at the indicated concentration for 18 h. After adding 50 μl of Caspase-Glo® 3/7 Reagent (Promega, G8091) to each well for 30 min at room temperature, the luminescence was measured on a Spark® Multimode Microplate Reader (Tecan). The data was analyzed by the GraphPad Prism 9.0.

“And” between values parts separate entries of the source, which are not always exact repeats. Identical values can stand only once.

T2 sequence (Q15059 whole entry): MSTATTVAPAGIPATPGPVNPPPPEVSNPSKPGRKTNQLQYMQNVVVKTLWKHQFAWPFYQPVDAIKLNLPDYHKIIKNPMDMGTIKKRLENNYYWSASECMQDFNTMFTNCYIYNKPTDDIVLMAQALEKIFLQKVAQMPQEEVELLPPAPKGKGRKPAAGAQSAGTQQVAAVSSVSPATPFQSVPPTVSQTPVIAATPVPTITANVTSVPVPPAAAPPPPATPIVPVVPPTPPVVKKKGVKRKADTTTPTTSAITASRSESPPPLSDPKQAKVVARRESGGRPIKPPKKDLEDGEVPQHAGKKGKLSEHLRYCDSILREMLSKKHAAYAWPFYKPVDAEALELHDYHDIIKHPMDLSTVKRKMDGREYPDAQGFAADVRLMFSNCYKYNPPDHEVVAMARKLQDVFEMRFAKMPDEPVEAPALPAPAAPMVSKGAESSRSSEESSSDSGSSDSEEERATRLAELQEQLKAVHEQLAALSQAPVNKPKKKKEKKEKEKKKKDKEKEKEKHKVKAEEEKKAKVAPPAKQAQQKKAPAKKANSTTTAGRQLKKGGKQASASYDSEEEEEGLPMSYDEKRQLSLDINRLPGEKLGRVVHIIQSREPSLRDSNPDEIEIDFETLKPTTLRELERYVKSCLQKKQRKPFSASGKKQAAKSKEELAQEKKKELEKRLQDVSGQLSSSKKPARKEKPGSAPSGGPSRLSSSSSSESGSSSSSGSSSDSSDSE

On to `O=C1Nc2ccc(Br)cc2C1=Cc1cc(Br)c(O)c(Br)c1` [Compound 2], for which the “BRD2/Vinculin intensity (relative to control group)” value in the experiment with BRD2 (Hep G2 cells, pretreated with compound at 30 μM 1 h, then 9 (10 μM, 4 h), single repeats, Fig. 4h) is 45.5673 and 52.7494 and 40.9253 and 42.2632 and 42.726. Further, the “Value (Mean ± SD): Relative BRD2 levels remaining in Hep G2 cells after treatment with compounds followed by treatment with 9, with DMSO control for normalization” value with BRD2 (qualitative ICW assay, pretreated at 30 μM 1 h, then 9 (10 μM, 4 h), Supplementary Table 1) was 44.85 ± 4.23.

On to `Cc1sc2c(c1C)C(c1ccc(Cl)cc1)=NC(CC(=O)NCCOCCOCCOCCOc1c(Br)cc(C=C3C(=O)Nc4ccc(Br)cc43)cc1Br)c1nnc(C)n1-2` (centres unmarked) [Compound 10], for which, on BRD4, the “degradation of BRD4” value is on record as “potent degradation activity”. The “degradation of BRD3” value at BRD3 was “potent degradation activity”. Besides, in the experiment with caspase-3/7 activity, the “caspase-3/7 activation compared with JQ1 or non-active degraders 16 and 17” value is listed as “substantially higher”.

With `Cc1sc2c(c1C)C(c1ccc(Cl)cc1)=N[C@@H](CC(=O)NCCOCCOCCOCCOCCNC(=O)COc1c(Br)cc(/C=C3\C(=O)Nc4ccc(Br)cc43)cc1Br)c1nnc(C)n1-2` [Compound 9], the “degradation of BRD4” value at BRD4 is “potent degradation activity”. On BRD4 (6 h, up to 50 µM concentration), the “hook effect for BRD4” value is on record as “almost no hook effect”. Also, the “degradation of BRD3” value on BRD3 is recorded as “potent degradation activity”. The “hook effect for BRD3” value on BRD3 (6 h, at 10 µM) is reported as “strong hook effect”. Moreover, in the experiment with BRD2 (Hep G2 cells, 4 h), the “BRD2 depletion by In-Cell Western” value was “dose-dependent depletion of BRD2”. Further, in the experiment with caspase-3/7 activity, the “caspase-3/7 activation compared with JQ1 or non-active degraders 16 and 17” value is “substantially higher”.

These data come from article PMC10689823, “Discovery of a Drug-like, Natural Product-Inspired DCAF11 Ligand Chemotype” (Nature Communications, 2023).
